Patent US20150284393A1, “METHODS FOR TREATING EYE DISORDERS” (PRISM PHARMA CO., LTD, priority 2012, published 2015)

Legend:
[1] = system: rat model of laser-induced choroidal neovascularization; experiment: rat model of laser-induced choroidal neovascularization (CNV); type: in vivo, Brown Norway rats; conditions: for average CNV lesion size vs vehicle controls: bilateral intravitreal on Days 3 and 10; for anti-angiogenic or vascular disruption activity: rat model of CNV, intravitreal
From the text: The objective of this study was to assess the anti-angiogenic/vascular disrupting effects of Compound A, an alpha helix mimetic β-catenin inhibitor compound, and Compound C, the active metabolite of Compound A, in a rat model of laser-induced choroidal neovascularization. Compound A is 4-(((6S,9S,9aS)-1-(benzylcarbamoyl)-2,9-dimethyl-4,7-dioxo-8-(quinolin-8-ylmethyl)octahydro-1H-pyrazino[2,1-c][1,2,4]triazin-6-yl)methyl)phenyl dihydrogen phosphate. Compound C is (6S,9S,9aS)-N-benzyl-6-(4-hydroxybenzyl)-2,9-dimethyl-4,7-dioxo-8-(quinolin-8-ylmethyl)octahydro-1H-pyrazino[2,1-c][1,2,4]triazine-1-carboxamide.
For compound A, an 80 mg/ml solution of 4-(((6S,9S,9aS)-1-(benzylcarbamoyl)-2,9-dimethyl-4,7-dioxo-8-(quinolin-8-ylmethyl)octahydro-1H-pyrazino[2,1-c][1,2,4]triazin-6-yl)methyl)phenyl dihydrogen phosphate was prepared in sterile PBS. This solution was further diluted 1:4 to make a 20 mg/ml solution. The 20 mg/ml solution was diluted 1:4 to make a 5 mg/ml solution.
For compound C, a solution containing 0.5% NaCMC and 0.5% Polysorbate 80 (Tween 80) was prepared in USP grade water. 20 mg of (6S,9S,9aS)-N-benzyl-6-(4-hydroxybenzyl)-2,9-dimethyl-4,7-dioxo-8-(quinolin-8-ylmethyl)octahydro-1H-pyrazino[2,1-c][1,2,4]triazine-1-carboxamide was dissolved in 1 ml (using displacement pipette) of USP grade PEG400 in a glass vial. Slight heating and sonication/vortexing were performed if necessary. The glass vial containing the 20 mg/ml compound C solution was placed on a magnetic stir plate and an equal volume (1 ml) of the CMC/Tween 80 solution was added to the compound C/PEG400 solution (slowly in drop-wise fashion during continuous mixing with a stir bar). The resultant formulation was a clear solution containing 10 mg/ml compound C, 50% PEG400, 0.25% NaCMC, and 0.25% Tween 80.
Laser application to produce CNV lesions. Animals were dilated with 1% Cyclogyl solution and protected from light. Following observable dilation, the animals were sedated with ketamine/xylazine. The fundus of sedated animals was observed and recorded using a Micron III small animal funduscope (Phoenix Research). Laser treatments were performed using a thermal laser which is connected through the Micron III custom laser attachment. A total of 3 lesions per eye were placed using a wavelength of 520 nm.
Fundus images were recorded to confirm that the laser had successfully produced a bubble through the Bruch's membrane. It was expected that 5-10% of all laser spots would not develop any quantifiable CNV.
Intravitreal injections. Animals were anesthetized with ketamine/xylazine and the test compound was then injected in a volume of 5 μl into the vitreous through the pars plana using a Hamilton syringe and a 32 gauge needle. Following injection, the animals received an equal amount of topical antibiotic ointment on both eyes. Any eyes displaying signs of hemorrhage following laser application or intravitreal injection were excluded from analysis.
Fluorescein angiography. Animals were anesthetized with ketamine/xylazine and then received an IP injection of 10% Fluorescein Sodium at 1 μl/gram of body weight. Fundus images were then captured as 8-bitt TIFF files using the Micron III and exciter/barrier filters for a target wavelength of 488 nm. Standard color fundus photos were also captured for each eye.
Imaging and lesion quantification. All TIFF images were quantified using computerized image-analysis software (ImageJ, NIH, USA). Lesions were then individually traced free-hand in order to quantify the area in pixels and the color fundus photos were used as a reference for lesion location. Areas of avascularization in the center of lesions were excluded from area calculations. In the case of a hemorrhage or two lesions overlapping these lesions were excluded from analysis.
Statistical Analyses. Statistical Analyses were performed with Graphpad Prism software (version 5) using one-way analysis of variance (ANOVA) with a Tukey's post-hoc test for significance.
Animals. […]

[2] = system: rat model of proliferative vitreoretinopathy (PVR) following retinal detachment; experiment: rat model of proliferative vitreoretinopathy (PVR) following retinal detachment; type: in vivo, Long Evans rats
From the text: The objective of this study was to assess the anti-fibrotic efficacy of Compound A, an alpha helix mimetic β-catenin inhibitor compound, in a rat model of proliferative vitreoretinopathy (PVR) following retinal detachment. Compound A is 4-(((6S,9S,9aS)-1-(benzylcarbamoyl)-2,9-dimethyl-4,7-dioxo-8-(quinolin-8-ylmethyl)octahydro-1H-pyrazino[2,1-c][1,2,4]triazin-6-yl)methyl)phenyl dihydrogen phosphate.
The well defined normal consequences of retinal detachment in this animal model are the hyperproliferation of retinal glial cells (primarily Muller cells), the recruitment of immune cells, and the formation of glial scars. An effective treatment would result in less glial scarring.
Retinal detachments were created by infusing a dilute solution (0.25%) of Healon into the subretinal space of the right eyes in 16 Long Evans rats. Twenty (20) mg/ml of Compound A in 5 microliters were injected intravitreally immediately after the detachment surgery in 8 animals. The other 8 animals received an intravitreal injection of the vehicle as a control. The left eyes served as naive controls. Seven days after detachment, settling of the retina occurs causing folds to form in the retina. All animals were euthanized using CO2, 7 days after retinal detachment.
Following euthanasia, the retinas were fixed in 4% paraformaldehyde for 24 hours. Three retinal regions approximately 3 mm square were sampled from within each detached retina as well as from control retinas. The retinas were embedded in agarose and vibratomed at 100 microns in thickness. Sections were immunolabeled with antibodies to intermediate filament proteins (vimentin) and proliferating cells (phosphohistone H3). A marker for immune cells (isolectin B4) and a nuclear stain (Hoescht) was also used. All 4 probes were added to the same sections (i.e. quadruple labeling).
The sections were imaged using an Olympus FV1000 confocal microscope. Digital images were aquired and used to determine 1) the number and size of subretinal glial scars 2) the number of dividing cells and their cell type e.g. of immune or glial origin 3) whether microglia were “activated” and 4) if macrophages were present.
The data were analyzed using a two-tailed T-test. Mean differences with a P values less than 0.05 were considered significant.
Scar frequency was calculated by dividing the total number of scars noted in each retina by the total area examined. The average scar size/length was calculated by dividing the total scar length in a given retina by the total number of scars counted in that retina.
Immunohistochemistry. Qualitative assessment of animals (4 saline and 4 Compound A treated) were evaluated for glial scarring, cell proliferation, and immune cell infiltrates. Three retinal regions from rats 5-8 (PVR+saline) and 13-16 (PVR+Compound A) were excised from the eye, sectioned, and labeled with antibodies (˜25 sections from each eye were surveyed).

SMILES	size of the lesions ([1]; 50 μg intravitreal)	average CNV lesion size vs vehicle controls ([1]; Day 15, 50 μg, p<0.05, FIG. 4A)	anti-angiogenic or vascular disruption activity [1]	average CNV lesion size vs vehicle controls ([1]; Day 15, 400 μg, p<0.01, FIG. 4A)	average CNV lesion size vs vehicle controls ([1]; Day 22, 100 μg, p<0.01, FIG. 4B)	CNV lesion size, dose effect ([1]; two higher tested doses (100 μg or 400 μg), 25 μg not significant)	dividing immune cells (immune cell response) following retinal detachment ([2]; 20 mg/ml in 5 microliters intravitreally immediately after detachment, 7 days after detachment, vs vehicle, FIG. 1A)	number of Muller cells/mm ([2]; 20 mg/ml in 5 microliters intravitreally, 7 days after detachment, two-tailed T-test, P<0.05 significant, FIG. 1C)	increase in number of proliferating glial cells following retinal detachment ([2]; 20 mg/ml in 5 microliters intravitreally, 7 days after detachment, vs vehicle, FIG. 1B)	increase in number of proliferating Muller cells following retinal detachment ([2]; 20 mg/ml in 5 microliters intravitreally, 7 days after detachment, vs vehicle, FIG. 1C)	increase in number of proliferating astrocytes following retinal detachment ([2]; 20 mg/ml in 5 microliters intravitreally, 7 days after detachment, vs vehicle, FIG. 1D)	frequency of glial scar formation (total number of scars / total area examined) ([2]; 20 mg/ml in 5 microliters intravitreally, 7 days after detachment, vs vehicle, FIG. 2A)	average scar size/length (total scar length / number of scars) ([2]; 20 mg/ml in 5 microliters intravitreally, 7 days after detachment, vs vehicle, FIG. 2B)	subretinal gliosis (glial scarring), vimentin labeled Muller cell processes extending into the subretinal space, immunohistochemistry ([2]; qualitative assessment, 4 treated animals (rats 13-16) vs 4 saline, FIGS. 3C-3D)
C[C@H]1[C@H]2N(C(=O)CN(C)N2C(=O)NCc2ccccc2)[C@@H](Cc2ccc(O)cc2)C(=O)N1Cc1cccc2cccnc12 [Compound C, (6S,9S,9aS)-N-benzyl-6-(4-hydroxybenzyl)-2,9-dimethyl-4,7-dioxo-8-(quinolin-8-ylmethyl)octahydro-1H-pyrazino[2,1-c][1,2,4]triazine-1-carboxamide]	significant impact	statistically significant	demonstrated efficacy	–	–	–	–	–	–	–	–	–	–	–
C[C@H]1[C@H]2N(C(=O)CN(C)N2C(=O)NCc2ccccc2)[C@@H](Cc2ccc(OP(=O)(O)O)cc2)C(=O)N1Cc1cccc2cccnc12 [Compound A, 4-(((6S,9S,9aS)-1-(benzylcarbamoyl)-2,9-dimethyl-4,7-dioxo-8-(quinolin-8-ylmethyl)octahydro-1H-pyrazino[2,1-c][1,2,4]triazin-6-yl)methyl)phenyl dihydrogen phosphate]	–	–	demonstrated efficacy	statistically significant	demonstrated significance	demonstrated statistical significance	did not have any effect	significantly affected	largely attenuated	largely attenuated	largely attenuated	significantly reduced	significant reduction	no glial scarring was noted
